ChEMBL document CHEMBL1148788 (J Med Chem, 2007)

Columns and labels:
[1] = molecular target: Neuronal acetylcholine receptor; alpha4/beta2 (Rattus norvegicus, UniProt P09483+P12390); assay: Displacement of [3H]epibatidine from rat recombinant alpha-4-beta-2 nAChR in HEK293 cell line; format: cell-based; conditions: for pKi: hek293; for Ki: read-out: Ki
[2] = molecular target: T1, Neuronal acetylcholine receptor; alpha3/beta4 (Rattus norvegicus, UniProt P04757+P12392); assay: Displacement of [3H]epibatidine from recombinant rat alpha-3-beta-4 nAChr in HEK293 cell line; format: cell-based; conditions: for pKi: hek293
T1 sequence (P04757 whole entry): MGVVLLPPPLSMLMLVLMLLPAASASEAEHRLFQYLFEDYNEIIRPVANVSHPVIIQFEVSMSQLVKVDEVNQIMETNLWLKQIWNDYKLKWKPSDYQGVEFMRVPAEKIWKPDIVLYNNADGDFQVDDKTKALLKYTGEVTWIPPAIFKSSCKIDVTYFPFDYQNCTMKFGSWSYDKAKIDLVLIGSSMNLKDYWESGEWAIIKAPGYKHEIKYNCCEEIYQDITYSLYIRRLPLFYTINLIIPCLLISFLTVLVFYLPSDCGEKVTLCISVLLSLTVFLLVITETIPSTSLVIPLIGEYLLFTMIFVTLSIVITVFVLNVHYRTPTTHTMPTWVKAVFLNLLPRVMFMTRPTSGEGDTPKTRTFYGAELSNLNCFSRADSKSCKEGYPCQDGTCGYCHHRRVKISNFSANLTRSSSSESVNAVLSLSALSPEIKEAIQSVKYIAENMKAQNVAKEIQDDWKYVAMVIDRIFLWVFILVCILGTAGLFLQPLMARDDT
T1 sequence (P12392 whole entry): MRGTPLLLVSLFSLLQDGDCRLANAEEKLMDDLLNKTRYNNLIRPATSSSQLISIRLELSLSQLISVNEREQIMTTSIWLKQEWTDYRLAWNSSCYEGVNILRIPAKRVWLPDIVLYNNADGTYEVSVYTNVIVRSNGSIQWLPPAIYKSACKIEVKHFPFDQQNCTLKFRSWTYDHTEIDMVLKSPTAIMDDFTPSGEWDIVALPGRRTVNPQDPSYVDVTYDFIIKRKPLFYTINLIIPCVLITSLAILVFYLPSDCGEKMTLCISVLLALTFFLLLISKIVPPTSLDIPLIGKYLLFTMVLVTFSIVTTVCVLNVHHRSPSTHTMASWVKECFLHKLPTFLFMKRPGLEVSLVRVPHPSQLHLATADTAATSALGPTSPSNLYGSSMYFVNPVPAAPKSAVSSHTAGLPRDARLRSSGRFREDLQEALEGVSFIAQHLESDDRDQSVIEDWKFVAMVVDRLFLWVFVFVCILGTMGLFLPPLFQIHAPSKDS

[3] = molecular target: Neuronal acetylcholine receptor; alpha4/beta4 (Rattus norvegicus, UniProt P09483+P12392); assay: Displacement of [3H]epibatidine from recombinant rat alpha-4-beta-4 nAChr in HEK293 cell line; format: cell-based; conditions: for pKi: hek293
Neuronal acetylcholine receptor; alpha4/beta4, sequence (P09483 whole entry): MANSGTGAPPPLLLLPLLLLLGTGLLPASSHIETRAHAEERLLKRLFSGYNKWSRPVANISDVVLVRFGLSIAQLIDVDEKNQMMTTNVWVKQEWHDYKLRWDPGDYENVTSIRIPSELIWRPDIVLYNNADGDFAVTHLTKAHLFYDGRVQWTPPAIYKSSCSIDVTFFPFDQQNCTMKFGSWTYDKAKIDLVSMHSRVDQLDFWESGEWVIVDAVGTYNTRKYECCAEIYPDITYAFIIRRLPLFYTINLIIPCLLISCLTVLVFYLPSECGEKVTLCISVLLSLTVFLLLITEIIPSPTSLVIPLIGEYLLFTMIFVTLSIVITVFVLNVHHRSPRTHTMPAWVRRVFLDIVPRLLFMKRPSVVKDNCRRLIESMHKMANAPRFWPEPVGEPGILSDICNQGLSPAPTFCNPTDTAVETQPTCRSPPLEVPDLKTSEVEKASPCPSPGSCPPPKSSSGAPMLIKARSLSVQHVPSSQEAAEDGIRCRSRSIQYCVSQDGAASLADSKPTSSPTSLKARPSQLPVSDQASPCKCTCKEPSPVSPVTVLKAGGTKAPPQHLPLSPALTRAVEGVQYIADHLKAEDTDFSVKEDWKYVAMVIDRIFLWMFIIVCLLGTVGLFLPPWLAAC
Neuronal acetylcholine receptor; alpha4/beta4, sequence (P12392 whole entry): as the sequence (P12392 whole entry) above

[4] = molecular target: T2, Neuronal acetylcholine receptor subunit alpha-7 (Homo sapiens, UniProt P36544); assay: Displacement of [3H]methyllycaconitine from human alpha-7 in tsA201 cells coexpressed with 5HT3A receptor; format: cell-based
T2 sequence (P36544 whole entry): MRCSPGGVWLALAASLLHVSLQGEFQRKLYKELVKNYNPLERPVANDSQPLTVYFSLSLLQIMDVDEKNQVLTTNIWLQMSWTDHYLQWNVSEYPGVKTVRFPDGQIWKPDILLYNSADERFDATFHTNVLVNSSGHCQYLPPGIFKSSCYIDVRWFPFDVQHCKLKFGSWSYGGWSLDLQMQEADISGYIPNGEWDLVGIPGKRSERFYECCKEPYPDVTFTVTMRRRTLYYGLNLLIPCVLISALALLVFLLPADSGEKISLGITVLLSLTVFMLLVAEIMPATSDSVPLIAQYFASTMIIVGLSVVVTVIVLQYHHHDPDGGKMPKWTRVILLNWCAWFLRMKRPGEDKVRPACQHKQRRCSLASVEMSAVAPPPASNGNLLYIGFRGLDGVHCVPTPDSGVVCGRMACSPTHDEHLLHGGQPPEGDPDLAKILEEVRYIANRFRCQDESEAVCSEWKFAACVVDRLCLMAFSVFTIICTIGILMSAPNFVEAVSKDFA

[5] = molecular target: T2, Neuronal acetylcholine receptor subunit alpha-7; assay: Displacement of [3H]methyllycaconitine from alpha7 nAChR in tsA201 cells co-expressed with Ric3; format: cell-based
[6] = molecular target: T3, 5-hydroxytryptamine receptor 3A (Homo sapiens, UniProt P46098); assay: Displacement of [3H]GR65630 from human 5HT3A receptor in HEK293 cells; format: cell-based; conditions: for pKi: hek293
T3 sequence (P46098 whole entry): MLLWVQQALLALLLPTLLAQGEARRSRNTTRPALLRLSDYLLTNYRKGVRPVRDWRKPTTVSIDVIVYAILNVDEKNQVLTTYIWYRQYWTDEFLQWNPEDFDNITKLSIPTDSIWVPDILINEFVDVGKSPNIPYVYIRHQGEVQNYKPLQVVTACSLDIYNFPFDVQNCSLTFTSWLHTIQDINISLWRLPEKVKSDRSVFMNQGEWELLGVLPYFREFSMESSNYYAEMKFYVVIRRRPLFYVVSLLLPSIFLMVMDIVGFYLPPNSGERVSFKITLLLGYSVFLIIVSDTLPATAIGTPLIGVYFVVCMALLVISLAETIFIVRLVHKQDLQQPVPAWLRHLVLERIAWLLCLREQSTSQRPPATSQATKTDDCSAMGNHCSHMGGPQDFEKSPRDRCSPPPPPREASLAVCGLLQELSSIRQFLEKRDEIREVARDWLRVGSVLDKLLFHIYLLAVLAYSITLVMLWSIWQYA

[7] = molecular target: T2, Neuronal acetylcholine receptor subunit alpha-7; assay: Antagonist activity at human alpha-7 nAChR in tsA201 cells coexpressed with Ric3 by FMP assay; format: functional, cell-based
[8] = molecular target: T1, Neuronal acetylcholine receptor; alpha3/beta4; assay: Antagonist activity at rat alpha3beta4 nAChR expressed in HEK293 cells by FMP assay; format: functional, cell-based, Homo sapiens; conditions: for pIC50: hek293
[9] = molecular target: T3, 5-hydroxytryptamine receptor 3A; assay: Antagonist activity at human 5HT3A receptor expressed in HEK293 cells by FMP assay; format: functional, cell-based; conditions: for IC50: read-out: IC50; for pIC50: hek293
[10] = cells; format: functional, cell-based; conditions: Homo sapiens, HEK293
[11] = molecular target: T4, Glycine receptor subunit alpha-1 (Homo sapiens, UniProt P23415); assay: Antagonist activity at human glycine alpha-1 receptor in HEK293 cells by FMP assay; format: functional, cell-based; conditions: for pIC50: hek293
T4 sequence (P23415 whole entry): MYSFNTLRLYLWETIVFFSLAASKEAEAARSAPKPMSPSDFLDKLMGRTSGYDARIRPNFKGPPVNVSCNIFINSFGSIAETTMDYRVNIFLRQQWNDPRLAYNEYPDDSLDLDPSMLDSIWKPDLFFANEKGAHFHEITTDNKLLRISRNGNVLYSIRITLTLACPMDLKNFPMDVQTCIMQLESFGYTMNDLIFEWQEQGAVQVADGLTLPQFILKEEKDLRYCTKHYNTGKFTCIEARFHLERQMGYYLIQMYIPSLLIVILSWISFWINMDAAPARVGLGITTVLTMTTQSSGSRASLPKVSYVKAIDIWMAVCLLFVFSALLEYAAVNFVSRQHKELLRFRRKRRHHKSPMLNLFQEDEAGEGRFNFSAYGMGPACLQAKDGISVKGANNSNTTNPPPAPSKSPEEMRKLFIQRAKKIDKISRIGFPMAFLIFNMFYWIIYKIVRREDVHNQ

Neuronal acetylcholine receptor; alpha4/beta2, sequence (P09483 whole entry): as the sequence (P09483 whole entry) above
Neuronal acetylcholine receptor; alpha4/beta2, sequence (P12390 whole entry): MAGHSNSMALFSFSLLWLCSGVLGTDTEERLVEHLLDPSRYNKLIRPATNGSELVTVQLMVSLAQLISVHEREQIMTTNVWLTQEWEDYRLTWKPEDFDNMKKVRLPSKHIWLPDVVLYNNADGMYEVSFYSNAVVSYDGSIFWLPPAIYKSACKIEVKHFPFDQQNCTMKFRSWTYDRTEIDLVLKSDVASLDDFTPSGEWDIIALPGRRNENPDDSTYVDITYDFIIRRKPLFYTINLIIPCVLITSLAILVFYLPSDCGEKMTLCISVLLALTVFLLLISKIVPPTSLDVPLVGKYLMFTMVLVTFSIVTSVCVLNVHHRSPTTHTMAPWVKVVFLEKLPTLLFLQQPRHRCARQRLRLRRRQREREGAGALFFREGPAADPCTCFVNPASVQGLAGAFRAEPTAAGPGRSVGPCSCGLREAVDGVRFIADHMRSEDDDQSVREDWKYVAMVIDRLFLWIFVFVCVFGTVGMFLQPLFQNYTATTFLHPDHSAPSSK

Structure (SMILES) | pKi [1] | Ki [1] [µM] | Ki [2] [µM] | Ki [3] [µM] | pKi [3] | Ki ([4]; read-out: Ki) [µM] | Ki ([4]; read-out: pKi (converted)) [µM] | Ki ([5]; read-out: Ki) [µM] | Ki [6] [µM] | IC50 ([7]; read-out: IC50) [µM] | IC50 ([7]; read-out: pIC50 (converted)) [µM] | IC50 ([8]; read-out: IC50) [µM] | IC50 [9] [µM] | IC50 ([10]; read-out: IC50) [µM] | IC50 ([10]; read-out: pIC50 (converted)) [µM] | IC50 [11] [µM] | pIC50 [11] | Ki ([5]; read-out: pKi (converted)) [µM] | pKi [2] | pKi [6] | also measured
C/C=C/C[N+]12CC[C@@H]3[C@@H]4[C@@H]5[C@@H](OCC=C(C1)[C@@H]5C[C@@H]32)N1c2ccccc2[C@@]23CC[N+]5(C/C=C/C)CC6=CCO[C@H]([C@@H]([C@H]12)[C@H]6C[C@@H]35)N4c1ccccc1.[Br-].[Br-] (some centres undefined) | < 4 | > 100 | 100 | > 100 | < 4 | 0.23 | 0.251 | 0.1 | 15 | 1.1 | 1.15 | 100 | 100 | > 100 | > 100 | > 100 | < 4 |  |  |  | pKi ([5]; tsa201): 7
OC/C=C1/CN2CC[C@H]3[C@@H]2C[C@@H]1/C1=C/N2c4ccccc4[C@@]45CCN6CC7=CCO[C@H]([C@@H]([C@H]24)[C@H]7C[C@H]65)N(c2ccccc2)[C@@H]13 | < 4 | > 100 | 30 | > 100 | < 4 | 1.2 | 1.26 | 1.7 | 1.9 | 1.5 | 1.51 | 16 | 2.5 | > 100 | > 100 | > 100 | < 4 | 1.58 |  |  | 
CC(=O)OCC[N+]12CC[C@@H]3[C@@H]4[C@@H]5[C@@H](OCC=C(C1)[C@@H]5C[C@@H]32)N1c2ccccc2[C@@]23CC[N+]5(CCOC(C)=O)CC6=CCO[C@H]([C@@H]([C@H]12)[C@H]6C[C@@H]35)N4c1ccccc1.[Br-].[Br-] (some centres undefined) | < 4 | > 100 | > 100 | > 100 | < 4 | 0.28 | 0.251 | 0.31 | > 100 | 1.6 | 1.62 | > 100 | > 100 | > 100 | > 100 | > 100 | < 4 | 0.316 | < 4 | < 4 | pIC50 [8]: < 4; pIC50 [9]: < 4
C=CC[N+]12CC[C@@]34c5ccccc5N5/C=C6/[C@H]7C[C@H]8[C@@]9(CC[N@@+]8(CC=C)C/C7=C/CO)c7ccccc7N(/C=C(/[C@@H](C[C@@H]31)/C(=C\CO)C2)[C@H]54)[C@@H]69 (some centres undefined) | < 4 | > 100 | 3.2 | > 100 | < 4 | 2.1 | 2 | 1.1 | > 100 | 4.1 | 4.07 | 18 | > 100 | > 100 | > 100 | > 100 | < 4 | 1 |  | < 4 | IC50 ([8]; read-out: pIC50 (converted)): 15.8 µM; pIC50 [9]: < 4
COc1ccc(C[N+]23CC[C@@H]4[C@@H]5[C@@H]6[C@@H](OCC=C(C2)[C@@H]6C[C@@H]43)N2c3ccccc3[C@@]34CC[N+]6(Cc7ccc(OC)c(OC)c7)CC7=CCO[C@H]([C@@H]([C@H]23)[C@H]7C[C@@H]46)N5c2ccccc2)cc1OC.[Cl-].[Cl-] (some centres undefined) | < 4 | > 100 | > 100 | > 100 | < 4 | 0.13 | 0.126 | 0.059 | 28 | 1.3 | 1.32 | > 100 | 30 | > 100 | > 100 | > 100 | < 4 | 0.0631 | < 4 |  | pIC50 [8]: < 4
C=CC[N+]12CC[C@@H]3[C@@H]4[C@@H]5[C@@H](OCC=C(C1)[C@@H]5C[C@@H]32)N1c2ccccc2[C@@]23CCN5CC6=CCO[C@H]([C@@H]([C@H]12)[C@H]6C[C@H]53)N4c1ccccc1.[Br-] (some centres undefined) | < 4 | > 100 | > 100 | > 100 | < 4 | 0.071 |  | 0.055 | 19 | 0.34 | 0.339 | 30 | 30 | > 100 | > 100 | > 100 | < 4 | 0.0501 | < 4 |  | 
C=CC[N+](C)(C)Cc1c2n(c3ccccc13)Cc1c(C[N+](C)(C)CC=C)c3ccccc3n1C2.[Br-].[Br-] | < 4 | > 100 | > 100 | > 100 | < 4 | 4.4 | 3.98 | 2.9 | > 100 | 30 | 100 | > 100 | > 100 | > 100 | > 100 | > 100 | < 4 | 3.16 | < 4 | < 4 | pIC50 [8]: < 4; pIC50 [9]: < 4
C[N+]12CCC34c5ccccc5N5/C=C6/[C@H]7C[C@H]8[C@@]9(CC[N+]8(C)C/C7=C/CO)c7ccccc7N(/C=C(/[C@@H](C[C@@H]31)/C(=C\CO)C2)[C@H]54)[C@@H]69.[Cl-].[Cl-] (some centres undefined) [TOXIFERINE] | < 4 | > 100 | 30 | > 100 | < 4 | 1.6 | 1.58 | 2.6 | > 100 | 9.5 | 9.55 | 30 | > 100 | > 100 | > 100 | > 100 | < 4 | 2.51 |  | < 4 | pIC50 [9]: < 4
